The text below walks through data of patent US8143265B2, “Method of treating atherosclerosis” (Meharry Medical College, priority 2007, dated 2012).

The subject of one data set is ApoE−/− mice. Briefly: Atherosclerosis development in ApoE−/− mice with oral feeding of 2-AP. The data set is classed as in vivo, mouse. On the procedure:
FIG. 1. ApoE^−/− mice at 5 weeks of age were treated with 200 mg/kg BW of 2-AP or equal volume of water as control via gavage feeding. This procedure was repeated once every other day for […]. A. Heart-aorta samples were collected from mice at 6 months of age (n=12 for each group of mice). Sequential 8-μm thick sections were cut from the mouse aortic root. The area (μm^2) of atherosclerotic lesions in the section was measured. B. Aortas from the aortic root to the iliac bifurcation were collected, and the area of atherosclerotic lesions and the total area of the aortic surface were measured, data are expressed as the percent of aortic surface area covered by atherosclerotic lesions. Data are expressed as the mean±SEM. *P<0.05 as compared to untreated control mice. 1. Inhibition of eIF-2α phosphorylation by 2-AP delays the development of atherosclerosis in ApoE^−/− mice: We find that oral feeding of 2-AP reduces the mean size of atherosclerotic lesions in the aorta root and the aorta tree by about 45% and 37%, respectively. […] These findings provide evidence that development of atherosclerosis in ApoE^−/− mice is associated with an increased eIF-2α phosphorylation and that inhibition of eIF-2α phosphorylation via in vivo treatment with 2-AP delays the development of atherosclerosis.

In data set [1] the test system is mouse peritoneal macrophages. Briefly: E−/B48 lipoprotein-induced foam cell formation, confocal microscopy of DiI and LysoTracker staining. It counts as cell-based. Conditions: MPMs, 20 μg/ml DiI-labeled E−/B48 lipoproteins plus 2 mM 2-AP, 48 hrs. Here is the method: FIG. 2. Mouse peritoneal macrophages were treated with 20 μg/ml DiI-labeled E^−/B48 lipoproteins, 20 μg/ml E^−/B48 lipoproteins plus 2 mM 2-AP, or culture medium alone (control) for 48 hrs. The cells were then stained with LysoTracker, which is used to localize lysosomes. Confocal microscopy images were captured, and the merged images are an overlay of the differential interference contrast (DIC) images and the fluorescence images of intracellular DiI and LysoTracker staining. Co-localization of DiI and LysoTracker staining indicates lipoprotein accumulation in the lysosomes. 2. Inhibition of eIF-2α phosphorylation by 2-AP represses E^−/B48 lipoprotein-induced foam cell formation in vitro. We previously reported that incubation of mouse peritonea macrophages (MPMs) with E^−/B48 lipoproteins induces lipid droplet accumulation in the cytoplasm. In some cells, E^−/B48 lipoproteins caused the cytoplasm to be almost entirely accumulated lipids, giving these cells a foam cell like appearance^12. In the present study, we used a confocal microscopy to localize the accumulated lipids in MPMs and to assess the effect of 2-AP on this localization.

In another data set the test system is eIF-2α phosphorylation. The experiment in a line: E−/B48 lipoprotein-induced eIF2α phosphorylation in MPMs. Conditions: addition to culture medium or transfection, data not shown. It counts as cell-based, mouse. The text has this: 3. ApoE-deficient lipoproteins induce eIF-2α phosphorylation. […] We also observed that addition of 2-AP to culture medium or transfection of a nonphosphorylatable eIF2α mutant to MPMs attenuated E^−/B48 lipoprotein-induced eIF2α phosphorylation (not shown).

Data set [2] concerns mouse peritoneal macrophages. Briefly: E−/B48 lipoprotein degradation and lipoprotein and cholesterol ester accumulation in MPMs. Conditions: addition to culture medium or transfection, data not shown. It counts as cell-based. From the text: 4. Inhibition of eIF-2α phosphorylation increases macrophage lipoprotein degradation, and suppresses cholesterol ester and lipoprotein accumulation in macrophages. We observed that E^−/B48 lipoproteins induced a time-related accumulation of cholesterol ester and lipoproteins in MPMs, which is associated with a reduced degradation rate of E^−/B48 lipoproteins. The addition of 2-AP to culture medium or transfection of a nonphosphorylatable eIF-2α mutant to MPMs enhances E^−/B48 lipoprotein degradation, and reduces E^−/B48 lipoprotein and cholesterol ester accumulation (data not shown).

Data set [3] concerns lysosomal hydrolases, including cathepsin B and lysosomal acid lipase. Briefly: E−/B48 lipoprotein-induced suppression of lysosomal hydrolases in MPMs. The data set is classed as cell-based, mouse. To be noted: data not shown. The text has this:
5. Inhibition of eIF-2α phosphorylation attenuates E^−/B48 lipoprotein-induced suppressive effect on lysosomal hydrolases. […] We also observed that 2-AP and the nonphosphorylatable eIF-2α mutant attenuated the suppressive effect of E^−/B48 lipoproteins on lysosomal hydrolases (data not shown). It is highly likely that E^−/B48 lipoprotein-induced eIF-2α phosphorylation down-regulates macrophage lysosomal hydrolases, which in turn reduces the degradation of the lipid and protein components of E^−/B48 lipoproteins, leading to lipoprotein accumulation in the lysosomes and triggering foam cell formation.

The test system of the next data set is mRNA translation. The experiment in a line: E−/B48 lipoprotein-induced suppression of mRNA translation. The data set is classed as cell-based. To be noted: data not shown. From the text: 6. Inhibition of eIF-2α phosphorylation attenuates E^−/B48 lipoprotein-induced suppression on mRNA translation. We observed that E^−/B48 lipoproteins reduced lysosomal hydrolases, due mainly to suppressing the translation of mRNAs encoding these proteins, and that 2-AP attenuated the suppressive effect of E^−/B48 lipoproteins on mRNA translation (data not shown).

Where [4] appears, read: ApoE−/− mice, 200 mg/kg BW 2-AP by gavage once every other day for 24 weeks, vs untreated control.
[5] abbreviates: ApoE−/− mice, 200 mg/kg BW once every other day for 24 weeks, 6-hr fasting.

Take `Nc1ncc2[nH]cnc2n1` [2-AP, 7H-purin-2-amine]: in the data set on ApoE−/− mice (2-AP treatment of ApoE−/− mice), the body weight result is “did not alter” and the food intake result was “did not alter”. In addition, in the data set with ApoE−/− mice (2-AP-treated ApoE−/− mice), the “advanced lesions (e.g., fibrous caps and acellular areas)” value is reported as “reduced markedly”. In the data set with ApoE−/− mice (setting [4]), the “reduction of mean size of atherosclerotic lesions in the aorta root” value was “about 45%” and the “reduction of mean size of atherosclerotic lesions in the aorta tree” value is given as ~37%. Further, in the data set on ApoE−/− mice (setting [5]), the plasma glucose levels result was “did not alter”, the plasma insulin levels entry was “did not alter” and the plasma lipid levels entry is reported as “did not alter”. Further, the “phosphorylated eIF-2α immunostaining in the atherosclerotic lesions” value with ApoE−/− mice (immunohistology, 2-AP-treated vs untreated ApoE−/− mice) is given as “significantly reduced”. Further, the “level of staining with DiI (intralysosomal lipid accumulation)” value in data set [1] is reported as “markedly reduced”. The “E−/B48 lipoprotein-induced eIF2α phosphorylation” value in the data set on eIF-2α phosphorylation is reported as “attenuated”. Besides, in data set [2], the “E−/B48 lipoprotein accumulation” value is “reduces”, the “E−/B48 lipoprotein degradation” value is given as “enhances” and the cholesterol ester accumulation result was “reduces”. Moreover, in data set [3], the “suppressive effect of E−/B48 lipoproteins on lysosomal hydrolases” value is listed as “attenuated”. For the same compound, the “suppressive effect of E−/B48 lipoproteins on mRNA translation” value in the data set with mRNA translation was “attenuated”.
